Read-outs that look alike come from different tables or passages of the source.
Tests used:
[1] = assay type: physicochemical; details: stored at room temperature (21-25° C.)
Protocol: At each time period, 0.05 g of powder was dissolved in 10 ml-15 of ethanol, diluted to fall within the analytical range, and injected into the LCMSMS for analysis.

[2] = Stability of cannabinoid and Vitamin E components of Beverage 2 (AB Red) stored at 8° C. and 21-25° C., LCMSMS over 570 days
Protocol: The LCMSMS was calibrated for 0-50 ng/ml cannabinoids with the same resin material used in the preparation of the concentrates. At each time period, 100 μml of beverage was diluted with 10 ml of methanol and injected into the LCMSMS for analysis.

Cc1c(C)c2c(c(C)c1OC(=O)CCC(=O)O)CC[C@@](C)(CCC[C@H](C)CCC[C@H](C)CCCC(C)C)O2 [α-Tocopheryl succinate]
Stability in Powder Concentrate (content by LCMSMS) ([1]; day 0): 1.82 mg/g powder
Stability in Powder Concentrate (content by LCMSMS) ([1]; day 1): 1.81 mg/g powder
Stability in Powder Concentrate (content by LCMSMS) ([1]; day 2): 1.81 mg/g powder
Stability in Powder Concentrate (content by LCMSMS) ([1]; day 3): 1.81 mg/g powder
Stability in Powder Concentrate (content by LCMSMS) ([1]; day 5): 1.83 mg/g powder
Stability in Powder Concentrate (content by LCMSMS) ([1]; day 8): 1.90 mg/g powder
Stability in Powder Concentrate (content by LCMSMS) ([1]; day 9): 1.89 mg/g powder
Stability in Powder Concentrate (content by LCMSMS) ([1]; day 10): 1.87 mg/g powder
Stability in Powder Concentrate (content by LCMSMS) ([1]; day 11): 1.89 mg/g powder
Stability in Powder Concentrate (content by LCMSMS) ([1]; day 12): 1.87 mg/g powder
Stability in Powder Concentrate (content by LCMSMS) ([1]; day 15): 1.87 mg/g powder
Stability in Powder Concentrate (content by LCMSMS) ([1]; day 16): 1.83 mg/g powder
Stability in Powder Concentrate (content by LCMSMS) ([1]; day 17): 1.88 mg/g powder
Stability in Powder Concentrate (content by LCMSMS) ([1]; day 18): 1.77 mg/g powder
Stability in Powder Concentrate (content by LCMSMS) ([1]; day 19): 1.85 mg/g powder
Stability in Powder Concentrate (content by LCMSMS) ([1]; day 22): 1.78 mg/g powder
Stability in Powder Concentrate (content by LCMSMS) ([1]; day 23): 1.80 mg/g powder
Stability in Powder Concentrate (content by LCMSMS) ([1]; day 24): 1.90 mg/g powder
Stability in Powder Concentrate (content by LCMSMS) ([1]; day 25): 1.90 mg/g powder
Stability in Powder Concentrate (content by LCMSMS) ([1]; day 26): 1.76 mg/g powder
Stability in Powder Concentrate (content by LCMSMS) ([1]; day 29): 1.87 mg/g powder
Stability in Powder Concentrate (content by LCMSMS) ([1]; day 30): 1.80 mg/g powder
Stability in Powder Concentrate (content by LCMSMS) ([1]; day 60): 1.77 mg/g powder
Stability in Powder Concentrate (content by LCMSMS) ([1]; day 90): 1.83 mg/g powder
Stability in Powder Concentrate (content by LCMSMS) ([1]; day 120): 1.83 mg/g powder
Stability in Powder Concentrate (content by LCMSMS) ([1]; day 150): 1.89 mg/g powder
Stability in Powder Concentrate (content by LCMSMS) ([1]; day 180): 1.77 mg/g powder
Stability in Powder Concentrate (content by LCMSMS) ([1]; day 210): 1.80 mg/g powder
Stability in Powder Concentrate (content by LCMSMS) ([1]; day 240): 1.84 mg/g powder
Stability in Powder Concentrate (content by LCMSMS) ([1]; day 270): 1.87 mg/g powder
Stability in Powder Concentrate (content by LCMSMS) ([1]; day 300): 1.84 mg/g powder
Stability in Powder Concentrate (content by LCMSMS) ([1]; day 330): 1.83 mg/g powder
Stability in Powder Concentrate (content by LCMSMS) ([1]; day 360): 1.79 mg/g powder
Stability in Powder Concentrate (content by LCMSMS) ([1]; day 390): 1.87 mg/g powder
Stability in Powder Concentrate (content by LCMSMS) ([1]; day 420): 1.82 mg/g powder
Stability in Powder Concentrate (content by LCMSMS) ([1]; day 450): 1.80 mg/g powder
Stability in Powder Concentrate (content by LCMSMS) ([1]; day 480): 1.76 mg/g powder
Stability in Powder Concentrate (content by LCMSMS) ([1]; day 510): 1.76 mg/g powder
Stability in Powder Concentrate (content by LCMSMS) ([1]; day 540): 1.80 mg/g powder
Stability in Powder Concentrate (content by LCMSMS) ([1]; day 570): 1.77 mg/g powder
Stability of Vitamin Es in AB Red ([2]; 8° C., 0 days): 12.5 µg/mL
Stability of Vitamin Es in AB Red ([2]; 8° C., 1 days): 11.7 µg/mL
Stability of Vitamin Es in AB Red ([2]; 8° C., 2 days): 11.7 µg/mL
Stability of Vitamin Es in AB Red ([2]; 8° C., 3 days): 11.7 µg/mL
Stability of Vitamin Es in AB Red ([2]; 8° C., 5 days): 11.5 µg/mL
Stability of Vitamin Es in AB Red ([2]; 8° C., 8 days): 12.6 µg/mL
Stability of Vitamin Es in AB Red ([2]; 8° C., 9 days): 11.8 µg/mL
Stability of Vitamin Es in AB Red ([2]; 8° C., 10 days): 12.6 µg/mL
Stability of Vitamin Es in AB Red ([2]; 8° C., 11 days): 12.1 µg/mL
Stability of Vitamin Es in AB Red ([2]; 8° C., 12 days): 12.7 µg/mL
Stability of Vitamin Es in AB Red ([2]; 8° C., 15 days): 12.5 µg/mL
Stability of Vitamin Es in AB Red ([2]; 8° C., 16 days): 11.5 µg/mL
Stability of Vitamin Es in AB Red ([2]; 8° C., 17 days): 12.4 µg/mL
Stability of Vitamin Es in AB Red ([2]; 8° C., 18 days): 11.9 µg/mL
Stability of Vitamin Es in AB Red ([2]; 8° C., 19 days): 11.7 µg/mL
Stability of Vitamin Es in AB Red ([2]; 8° C., 22 days): 11.9 µg/mL
Stability of Vitamin Es in AB Red ([2]; 8° C., 23 days): 12.0 µg/mL
Stability of Vitamin Es in AB Red ([2]; 8° C., 24 days): 12.2 µg/mL
Stability of Vitamin Es in AB Red ([2]; 8° C., 25 days): 12.0 µg/mL
Stability of Vitamin Es in AB Red ([2]; 8° C., 26 days): 12.5 µg/mL
Stability of Vitamin Es in AB Red ([2]; 8° C., 29 days): 11.6 µg/mL
Stability of Vitamin Es in AB Red ([2]; 8° C., 30 days): 12.4 µg/mL
Stability of Vitamin Es in AB Red ([2]; 8° C., 60 days): 11.4 µg/mL
Stability of Vitamin Es in AB Red ([2]; 8° C., 90 days): 11.5 µg/mL
Stability of Vitamin Es in AB Red ([2]; 8° C., 120 days): 12.2 µg/mL
Stability of Vitamin Es in AB Red ([2]; 8° C., 150 days): 11.5 µg/mL
Stability of Vitamin Es in AB Red ([2]; 8° C., 180 days): 11.4 µg/mL
Stability of Vitamin Es in AB Red ([2]; 8° C., 210 days): 11.4 µg/mL
Stability of Vitamin Es in AB Red ([2]; 8° C., 240 days): 11.6 µg/mL
Stability of Vitamin Es in AB Red ([2]; 8° C., 270 days): 11.5 µg/mL
Stability of Vitamin Es in AB Red ([2]; 8° C., 300 days): 11.2 µg/mL
Stability of Vitamin Es in AB Red ([2]; 8° C., 330 days): 11.7 µg/mL
Stability of Vitamin Es in AB Red ([2]; 8° C., 390 days): 11.2 µg/mL
Stability of Vitamin Es in AB Red ([2]; 8° C., 420 days): 11.0 µg/mL
Stability of Vitamin Es in AB Red ([2]; 8° C., 450 days): 11.2 µg/mL
Stability of Vitamin Es in AB Red ([2]; 8° C., 480 days): 10.9 µg/mL
Stability of Vitamin Es in AB Red ([2]; 8° C., 510 days): 10.8 µg/mL
Stability of Vitamin Es in AB Red ([2]; 8° C., 540 days): 10.9 µg/mL
Stability of Vitamin Es in AB Red ([2]; 8° C., 570 days): 10.6 µg/mL
Stability of Vitamin Es in AB Red ([2]; 21-25° C., 0 days): 12.5 µg/mL
Stability of Vitamin Es in AB Red ([2]; 21-25° C., 1 days): 12.5 µg/mL
Stability of Vitamin Es in AB Red ([2]; 21-25° C., 2 days): 12.0 µg/mL
Stability of Vitamin Es in AB Red ([2]; 21-25° C., 3 days): 11.9 µg/mL
Stability of Vitamin Es in AB Red ([2]; 21-25° C., 5 days): 11.9 µg/mL
Stability of Vitamin Es in AB Red ([2]; 21-25° C., 8 days): 12.0 µg/mL
Stability of Vitamin Es in AB Red ([2]; 21-25° C., 9 days): 11.7 µg/mL
Stability of Vitamin Es in AB Red ([2]; 21-25° C., 10 days): 12.0 µg/mL
Stability of Vitamin Es in AB Red ([2]; 21-25° C., 11 days): 12.0 µg/mL
Stability of Vitamin Es in AB Red ([2]; 21-25° C., 12 days): 12.4 µg/mL
Stability of Vitamin Es in AB Red ([2]; 21-25° C., 15 days): 11.6 µg/mL
Stability of Vitamin Es in AB Red ([2]; 21-25° C., 16 days): 11.6 µg/mL
Stability of Vitamin Es in AB Red ([2]; 21-25° C., 17 days): 12.6 µg/mL
Stability of Vitamin Es in AB Red ([2]; 21-25° C., 18 days): 12.1 µg/mL
Stability of Vitamin Es in AB Red ([2]; 21-25° C., 19 days): 11.9 µg/mL
Stability of Vitamin Es in AB Red ([2]; 21-25° C., 22 days): 11.6 µg/mL
Stability of Vitamin Es in AB Red ([2]; 21-25° C., 23 days): 12.7 µg/mL
Stability of Vitamin Es in AB Red ([2]; 21-25° C., 24 days): 12.4 µg/mL
Stability of Vitamin Es in AB Red ([2]; 21-25° C., 25 days): 11.9 µg/mL
Stability of Vitamin Es in AB Red ([2]; 21-25° C., 26 days): 12.1 µg/mL
Stability of Vitamin Es in AB Red ([2]; 21-25° C., 29 days): 12.4 µg/mL
Stability of Vitamin Es in AB Red ([2]; 21-25° C., 30 days): 12.1 µg/mL
Stability of Vitamin Es in AB Red ([2]; 21-25° C., 60 days): 11.7 µg/mL
Stability of Vitamin Es in AB Red ([2]; 21-25° C., 90 days): 11.6 µg/mL
Stability of Vitamin Es in AB Red ([2]; 21-25° C., 120 days): 11.5 µg/mL
Stability of Vitamin Es in AB Red ([2]; 21-25° C., 150 days): 11.4 µg/mL
Stability of Vitamin Es in AB Red ([2]; 21-25° C., 180 days): 12.3 µg/mL
Stability of Vitamin Es in AB Red ([2]; 21-25° C., 210 days): 11.6 µg/mL
Stability of Vitamin Es in AB Red ([2]; 21-25° C., 240 days): 11.6 µg/mL
Stability of Vitamin Es in AB Red ([2]; 21-25° C., 270 days): 11.0 µg/mL
Stability of Vitamin Es in AB Red ([2]; 21-25° C., 300 days): 11.4 µg/mL
Stability of Vitamin Es in AB Red ([2]; 21-25° C., 330 days): 11.4 µg/mL
Stability of Vitamin Es in AB Red ([2]; 21-25° C., 390 days): 10.8 µg/mL
Stability of Vitamin Es in AB Red ([2]; 21-25° C., 420 days): 11.0 µg/mL
Stability of Vitamin Es in AB Red ([2]; 21-25° C., 450 days): 11.2 µg/mL
Stability of Vitamin Es in AB Red ([2]; 21-25° C., 480 days): 10.4 µg/mL
Stability of Vitamin Es in AB Red ([2]; 21-25° C., 510 days): 10.6 µg/mL
Stability of Vitamin Es in AB Red ([2]; 21-25° C., 540 days): 10.3 µg/mL
Stability of Vitamin Es in AB Red ([2]; 21-25° C., 570 days): 10.6 µg/mL

— patent publication US20240415914A1, “Water Dispersible Cannabinoid Compositions” (priority 2021, published 2024)
